Patent US12239413B2, “2D material detector for activity monitoring of single living micro-organisms and nano-organisms” (SOUNDCELL HOLDING B.V., priority 2019, dated 2025)

Assays:
E. coli bacteria [1] = experiment: Motion of suspended single layer CVD graphene with E. coli droplet, antibiotic susceptibility; assay type: cell-based; details: single layer chemical vapour deposited graphene, Lysogeny broth droplet
Protocol: In the embodiment of FIG. 2 a red helium-neon laser 114 is directed through optical components 115 on the 2D material layer 102 which is placed in a controlled humidity chamber 116. The intensity of the reflected light from the chip 109 is altered by the motion of the micro-organism 105 in the liquid droplet 111 that in turn moves the suspended 2D material 102. This intensity is then measured by a photodiode 117 connected to an oscilloscope 118. In one example a liquid droplet 111 containing micro-organism E. coli bacteria 105 and nutrition Lysogeny broth solution 112 has been dispensed on the sample receiver 101 comprising an array of single layer chemical vapour deposited graphene as the inert suspended layer 102. The motion is read out using the measurement system described in FIG. 2. The motion of the suspended layer is traced in a timeframe of a few seconds in the presence and absence of chemicals 113 and micro-organisms 105.

E. coli bacteria [2] = experiment: Motion of suspended silanized exfoliated 10 nm few layer graphene with adhered E. coli, antibiotic susceptibility; assay type: cell-based
Protocol: In the embodiment of FIG. 2 a red helium-neon laser 114 is directed through optical components 115 on the 2D material layer 102 which is placed in a controlled humidity chamber 116. The intensity of the reflected light from the chip 109 is altered by the motion of the micro-organism 105 in the liquid droplet 111 that in turn moves the suspended 2D material 102. This intensity is then measured by a photodiode 117 connected to an oscilloscope 118. In another example a liquid droplet 111 containing micro-organism E. coli bacteria 105 and nutrition Lysogeny broth solution 112 has been dispensed on the sample receiver 101 comprising an array of silanized natural crystal exfoliated 10 nm few layer thick graphene as the suspended material 102. FIGS. 4a, 4b and 4c show the time traces of the suspended layer in a timeframe of twelve minutes.

Structure (SMILES): O=C(N[C@H](CO)[C@H](O)c1ccc([N+](=O)[O-])cc1)C(Cl)Cl [Chloramphenicol]
- change of variance of the time traces after adding antibiotic (E. coli bacteria [1]; FIG. 3d): drops about three times
- fluctuations of the motion time trace (bacterial metabolic activity) after addition of antibiotic (E. coli bacteria [1]; timeframe of a few seconds, FIG. 3c): No fluctuations are observed
- change in average amplitude of the amplitude spectrum of the time traces after adding antibiotic (E. coli bacteria [2]; FIGS. 5a-b (FIG. 4a vs FIG. 4c)): tenfold decrease
- fluctuations of the motion time trace (bacterial metabolic activity) after addition of antibiotic (E. coli bacteria [2]; adhered bacteria, timeframe of twelve minutes, FIGS. 4b, 4c): No fluctuations are observed
- change of variance of the time traces after adding antibiotic (E. coli bacteria [2]; timeframe of twelve minutes, FIG. 4d): drops about hundred times
